From US20150004100A1, “HETEROCYCLIC COMPOUNDS AS IMAGING PROBES OF TAU PATHOLOGY” (GE HEALTHCARE LIMITED, priority 2011, published 2015) come the findings set out here.

The subject of data set [1] is tau+ NFTs. As to the kind of experiment: Tissue binding assay (fluorescence), NFTs in human AD tissue sections. The arrangement: key to NFTs (staining): −: No staining; +: weak staining; ++: moderate staining; +++: intense staining. Particulars: for NFTs (staining): 100 μM, human AD tissue. The protocol: (§1) Human brain tissue samples from the entorhinal cortex of patients with Alzheimer's disease (AD) and healthy controls were obtained from Tissue Solutions (Tissue Solutions Ltd, Glasgow, UK). Tissue samples were collected after informed written consent, and specimens were dissected at the tissue bank and snap-frozen for cryopreservation at a time interval of between 3 and 18 h after death. The frozen tissue was embedded in TissueTek® (VWR) and sectioned using a Microm HM560 cryostat (Thermo Scientific). Serial 12 μm sections were mounted onto SuperFrost®+ glass slides (VWR) and stored a −70° C.
(§2) The binding of compounds to tau+NFTs and Aβ+ plaques in human AD tissue were evaluated based on fluorescence.
(§3) Briefly, tissue sections were defrosted and fixed in ice-cold 70% ethanol. All tissue sections were rinsed with PBS after fixation and between all subsequent incubation steps. To quench autofluorescence, tissue sections were incubated first with 0.25% KMnO4 (Sigma-Aldrich) in PBS for 12 min, and then with 0.1% […]/0.1% oxalic acid (both reagents from Sigma-Aldrich) in PBS for 1 min. The tissue sections were blocked with 2% BSA in PBS for 10 min, and then incubated with the test compounds at 100 μM concentration for 1 h at RT. […] Finally the tissue sections were rinsed in PBS, and mounted in SlowFade® mounting media (Invitrogen). Images of labelled tissue sections were captured using a Nikon digital camera connected to a Leica microscope and using the NIS Elements D software (Nikon). Images were further processed with the Photoshop® software (Adobe).

In data set [2] the test system is Aβ+ plaques. Put plainly: Tissue binding assay (fluorescence), plaques in human AD tissue sections. Also on record: key to Plaques (staining): −: No staining; +: weak staining; ++: moderate staining; +++: intense staining. Particulars: for Plaques (staining): 100 μM, human AD tissue. As for the experimental part:
as §1, §2, §3

Another data set concerns rat liver microsomes. Put plainly: Liver microsome stability assay, rat. Format: in vitro ADME. Particulars: 1 μM, 37° C., parent compound remaining, criterion >50%. As for the experimental part: (§4) The liver microsome stability assay provides an estimate of compound stability and rate of metabolism in vivo. The desirable criterion for this assay is >50% parent compound after 30 min.
(§5) A 1 μM compound solution was incubated with rat or human liver microsomes (20 mg/ml) at 37° C. and the amount of parent compound remaining following the incubation was determined after 5 and 30 min of incubation using LC-MS.

Data set [3] can be described thus: Protein binding assay, rat brain homogenates (rapid equilibrium dialysis). Type of data set: in vitro ADME. Particulars: rat brain homogenate, % bound, criterion <99%. The protocol:
(§6) The protein binding assays provide an estimate of free (unbound) fraction of the compound in the blood or brain in vivo. […] The desirable criterion for this assay is <99% of test compound bound.
(§7) Test compounds were first dissolved in DMSO to a concentration of 50 μM. This was followed by incubation in samples of human plasma and rat brain homogenates (final test concentration 1 μM). Binding of compounds to proteins was determined in the samples by rapid equilibrium dialysis after 5 and 30 min of incubation.

Data set [4] is described as follows: Protein binding assay, human plasma (rapid equilibrium dialysis). Particulars: % bound, criterion <99%. Type of data set: in vitro ADME. The protocol:
as §6, §7

Another data set has as its system human liver microsomes. Put plainly: Liver microsome stability assay, human. Particulars: 1 μM, 37° C., parent compound remaining, criterion >50%. Format: in vitro ADME. As for the experimental part: as §4, §5
A short description of data set [5]: PAMPA (parallel artificial membrane permeability assay). Format: in vitro ADME. Particulars: 10 μM, 5 h at RT; criterion >−6. The protocol: The PAMPA assay is used to determine how well a compound crosses a cell membrane by measuring its passage through a phosphotidyl choline barrier. A permeability coefficient >−6 indicates high permeability across lipid membranes and is indicative of a compounds ability to cross the blood brain barrier.
A 10 μM solution was incubated on a PDVF membrane coated with a 2% phoshotidyl choline solution for 5 h at RT. Membrane penetration was measured using LC-MS.

Data set [6] concerns Aβ+ plaques. As to the kind of experiment: Tissue binding assay (fluorescence), plaques in human AD tissue sections. The arrangement: key to Plaques (staining): −: No staining; +: weak staining; ++: moderate staining; +++: intense staining. Particulars: human AD tissue.
A short description of data set [7]: In vivo cold bio-distribution in rat (brain uptake, LC-MS). The protocol: All animal studies were in compliance with local rules and regulations. Test compounds were administered by intravenous (i.v) injection through the tail vein of naïve male Wistar rats (50 μg test compound/rat). The animals were sacrificed by dislocation of the neck at 2, 10, 30, 60 min post-injection (p.i). The brain and plasma were collected from each animal. The concentration of test compound was measured in the plasma and brain homogenates using LS-MS, and calculated as % compound/g (% ID/g).

Data set [8] deals with tau+ NFTs. Put plainly: Tissue binding assay (fluorescence), NFTs in human AD tissue sections. The arrangement: key to NFTs (staining): −: No staining; +: weak staining; ++: moderate staining; +++: intense staining. Particulars: for NFTs (staining): Table 2, human AD tissue.
Setting [9] is: high test concentration, AD tissue.

The structures appear in SMILES notation. “Also recorded” adds a separate entry of the source.

Turning to `CC(C)NC(=O)c1nn(-c2ccc(OCCF)cc2)c(=O)c2c(NC(=O)OC(C)(C)C)scc12` [Compound 64], the “NFTs (staining)” value in the data set on tau+ NFTs [1] (Table 3) is on record as “−”. The “Plaques (staining)” value in the data set with Aβ+ plaques [2] (Table 3) was “−”.
Consider `COc1ccc(-n2nc(C(=O)N3CCN(c4cccc(F)n4)CC3)c3csc(N)c3c2=O)cc1` [Compound 90], for which, in the data set on rat liver microsomes, the “Liver stability Rat (% PCP) 5 min” value is listed as 72.67 % PCP and the “Liver stability Rat (% PCP) 30 min” value is 53.0 % PCP. Further, the fraction unbound at 1 μM in data set [3] was 0.112. In addition, in data set [4], the fraction unbound at 1 μM is 0.0084. Also, the “Plaques (staining)” value with Aβ+ plaques [2] (Table 2) is recorded as “−”. In addition, in the data set with human liver microsomes, the “Liver stability Human (% PCP) 5 min” value turned out to be 44.62 % PCP and the “Liver stability Human (% PCP) 30 min” value is given as 2.57 % PCP. For the same compound, the “PAMPA Log Pe” value in data set [5] is recorded as −5.51.
With `COc1ccc(-n2nc(C(=O)N3CCN(c4cccc(F)n4)CC3)c3csc(NC(=O)OC(C)(C)C)c3c2=O)cc1` [Compound 91], the “NFTs (staining)” value with tau+ NFTs [1] (Table 2) was “−”. Moreover, the “Plaques (staining)” value with Aβ+ plaques [2] (Table 2) was “−”.
Turning to `COc1ccc(-n2nc(C(=O)N3CC[C@@H](F)C3)c3csc(N)c3c2=O)cc1` [Compound 107], the “Plaques (staining)” value in the data set on Aβ+ plaques [6] (Table 3, 1 μM) was “−”; in the data set with Aβ+ plaques [6] (Table 3, 10 μM) it was “−”; in the data set with Aβ+ plaques [2] (Table 3), “+”. The “NFTs (staining)” value in the data set with tau+ NFTs [1] (Table 3) is listed as “−”.
In turn, `COc1ccc(-n2nc(C(=O)NCCF)c3csc(N)c3c2=O)cc1` [Compound 106] came in with a tissue uptake at 2 min in data set [7] (male, Wistar, rat, brain, iv, 50 μg/rat, 2 min p.i.) of 0.014 %ID/g. The tissue uptake at 10 min in [7] (male, Wistar, rat, brain, iv, 50 μg/rat, 10 min p.i.) is 0.001 %ID/g. This compound registered a tissue uptake at 30 min in data set [7] (male, Wistar, rat, brain, iv, 50 μg/rat, 30 min p.i.) of 0.004 %ID/g. In data set [7] (male, Wistar, rat, brain, iv, 50 μg/rat, 60 min p.i.), this compound gave a tissue uptake at 60 min of 0.001 %ID/g. In addition, in data set [7] (rat brain, 2 min vs 30 min p.i.), the “Clearance ratio 2:30 min” value is 3.5. For the same compound, the “Brain uptake (in words)” value in data set [7] (rat, cold bio-distribution) is on record as “low brain uptake”. Moreover, the “Plaques (staining)” value with Aβ+ plaques [2] (Table 3) was “−”.
Turning to `CC(C)NC(=O)c1nn(-c2ccc(O)cc2)c(=O)c2c(NC(=O)OC(C)(C)C)scc12` [Compound 63], the “NFTs (staining)” value with tau+ NFTs [1] (Table 2) was “−”.
For the compound `CC(C)NC(=O)c1nn(-c2ccc([N+](=O)[O-])cc2)c(=O)c2c(N)scc12` [Compound 105], the “Plaques (staining)” value in the data set on Aβ+ plaques [6] (Table 2, 10 μM) is reported as “−”; with Aβ+ plaques [2] (Table 2) it was “++”. Besides, the “NFTs (staining)” value with tau+ NFTs [1] (Table 2) is reported as “++”; with tau+ NFTs [8] (1 μM), “−”; in the data set on tau+ NFTs [8] (10 μM), “+”. In addition, in the data set with tau+ NFTs [1] (setting [9]), the “Binding to NFTs (in words)” value is “binds to NFTs (C, D) and plaques (D); also recorded: bind to both NFTs and plaques”. The “Liver stability Rat (% PCP) 5 min” value in the data set on rat liver microsomes turned out to be 81.29 % PCP. In addition, the “Liver stability Rat (% PCP) 30 min” value with rat liver microsomes is listed as 58.8 % PCP. Further, the fraction unbound at 1 μM is 0.112 in data set [3] and 0.02 in data set [4]. The “Binding to plaques (in words)” value in the data set with Aβ+ plaques [2] (setting [9]) was “binds to NFTs (C, D) and plaques (D); also recorded: bind to both NFTs and plaques”. Also, the “Binding preference for NFTs (in words)” value with tau+ NFTs [8] (lower test concentrations, AD tissue) was “binds preferentially to NFTs; also recorded: bind with a preference for NFTs”. For the same compound, the “Liver stability Human (% PCP) 5 min” value in the data set with human liver microsomes was 91.5 % PCP. Moreover, in the data set on human liver microsomes, the “Liver stability Human (% PCP) 30 min” value worked out at 73.2 % PCP. Also, the “PAMPA Log Pe” value in data set [5] is given as −5.10.
Regarding `COc1ccc(-n2nc(C(=O)N3CCC(CCF)CC3)c3csc(N)c3c2=O)cc1` [Compound 56], the “NFTs (staining)” value in the data set with tau+ NFTs [1] (Table 3) is listed as “−”. Moreover, in the data set with rat liver microsomes, the “Liver stability Rat (% PCP) 5 min” value was determined as 94.88 % PCP and the “Liver stability Rat (% PCP) 30 min” value amounted to 92.06 % PCP. This compound also gave an unbound share (fraction unbound) at 1 μM in data set [3] of 0.448. Also, the fraction unbound at 1 μM in [4] was 0.0372. In addition, the “Plaques (staining)” value in the data set on Aβ+ plaques [2] (Table 3) was “−”. Further, in the data set on human liver microsomes, the “Liver stability Human (% PCP) 5 min” value is recorded as 80.98 % PCP and the “Liver stability Human (% PCP) 30 min” value stood at 52.10 % PCP. Further, the “PAMPA Log Pe” value in data set [5] was −5.16.
On to `CC(C)NC(=O)c1nn(-c2ccc(O)cc2)c(=O)c2c(N)scc12` [Compound 58], for which, in the data set with rat liver microsomes, the “Liver stability Rat (% PCP) 5 min” value turned out to be 90.03 % PCP and the “Liver stability Rat (% PCP) 30 min” value is given as 79.3 % PCP. In data set [3], this compound gave an unbound share (fraction unbound) at 1 μM of 0.506. The compound also had an unbound share (fraction unbound) at 1 μM in [4] of 0.068. In the data set on human liver microsomes, the “Liver stability Human (% PCP) 5 min” value is 100.9 % PCP and the “Liver stability Human (% PCP) 30 min” value was 83.4 % PCP. Moreover, the “PAMPA Log Pe” value in [5] is given as −7.52.
